Laboratory results: article PMC12040169 (PLOS Biology, 2025)

test: in vitro; conditions: human, hela cells, % viability

| SMILES | viability at 28.5 h, 10 µM |
| --- | --- |
| C1=C(CN2CCn3nc(CNc4cnccn4)cc3C2)CCCC1 [CBK307406] | 86.1% |
| CC1(C)Cc2nc(N3CCOCC3)ncc2C(NC(=O)c2cn[nH]c2)C1 (stereo not drawn) [CBK307409] | 106% |
| COCCN1CCn2c(nc3cc(NC(=O)c4ccccc4)ccc32)C1 [CBK307410] | 89.4% |
| COCCN1CCn2c(nc3cc(NC(=O)C4CCCCC4)ccc32)C1 [CBK307411] | 112% |
| COC(=O)Nc1sc2c(c1C(=O)N1CCOCC1)CCC(C)C2 (stereo not drawn) [CBK307413] | 95% |
| O=C(NC1CCCc2nc(N3CCC(CO)CC3)ncc21)C1CCCC1 (stereo not drawn) [CBK307415] | 87.4% |
| CCc1nccn1CCN1CCCC(COc2ccccc2F)C1 (stereo not drawn) [CBK307416] | 93.4% |
| COCC(C)NC(=O)c1cnn2c(C(F)(F)F)cc(-c3cccs3)nc12 (stereo not drawn) [CBK307417] | 104% |
| CCc1cc(C(=O)Nc2nn(C)c3cccc(N4CCOCC4)c23)cs1 [CBK307419] | 110% |
| CO[C@H]1CNC[C@@H]1NC(=O)c1cccc2c1NCCC2 [CBK307421] | 115% |
| O=c1[nH]c(NCc2ccccc2)nc2c1CCCC2 [CBK307423] | 89.9% |
| CCC(=O)Nc1ccc(C(=O)N2CCN(c3ccccc3)CC2)cc1 [CBK307425] | 105% |
| Cn1cc(C(NC(=O)c2cn3ccsc3n2)C2CC(O)C2)cn1 (stereo not drawn) [CBK307428] | 110% |
| CCCCc1nccc(-c2ccc(OCC)c(C(=O)O)c2)n1 [CBK307429] | 82.8% |
| CC(=O)NC1CCN(c2nc(C(C)(C)C)nc3c2cnn3C)CC1 [CBK307431] | 101% |
| CN1CCC(N(C)C(=O)c2ccc(-c3ccccc3CO)cc2)C1 (stereo not drawn) [CBK307432] | 103% |
| Cn1c(N2CC[C@H](O)C2)nc2cc(C(=O)NC[C@@H]3CCCO3)ccc21 [CBK307433] | 109% |
| CC1(Cn2ccnc2-c2ccccc2C(=O)O)CCCO1 (stereo not drawn) [CBK307439] | 88.8% |
| CN(C)C(=O)c1cn2cc(-c3cccs3)n(CC3CC3)c(=O)c2n1 [CBK307440] | 91.4% |
| Cc1cc(-n2cccn2)ccc1CN1CCCCC1CN1CCOCC1 (stereo not drawn) [CBK307442] | 83.2% |
| CC(C)c1nc(CCN(C)C(=O)NCc2cc(-c3ccco3)on2)no1 [CBK307443] | 97.8% |
| CNc1nc(Cn2ncc(N3CCCN(C)CC3)cc2=O)cs1 [CBK307446] | 92.8% |

| SMILES | viability at 28.5 h, 10 µM |
| --- | --- |
| COCCc1nc(C2CCN(C)CC2)n(Cc2ccccc2C)n1 [CBK307449] | 115% |
| CCCNC(=O)c1ccc(C)c(NC(=O)N[C@@H]2C[C@@H](CO)N(C)C2)c1 [CBK307451] | 92.9% |
| Cc1nc(O)cc(C2CCN(C(=O)c3scc4c3CCCC4)CC2)n1 [CBK307452] | 85.9% |
| OC(c1cccs1)C1CCN(Cc2ccc(Cn3cccn3)cc2)CC1 (stereo not drawn) [CBK307454] | 83.6% |
| CC(=O)Nc1cccc(C(=O)NC2CC(=O)N(C3CCCCCC3)C2)c1 (stereo not drawn) [CBK307455] | 102% |
| Cc1n[nH]c2c1CN(Cc1nc(C)c(C)n1C)CC2 [CBK307456] | 84.7% |
| COCCn1c(CO)nnc1[C@H]1C[C@@H](NC(=O)c2ncc(F)cc2F)C1 [CBK307458] | 106% |
| CCCn1ccnc1CNc1nc(C)nc2c1c(C)nn2C [CBK307459] | 85% |
| Cn1ccnc1CN1CCCC(CCC(=O)Nc2ccccc2F)C1 (stereo not drawn) [CBK307462] | 92.1% |
| O=C(NC(c1ccc2c(c1)CCO2)C1CC(O)C1)c1cccc(=O)[nH]1 (stereo not drawn) [CBK307463] | 86.2% |
| COCCC1CN(c2nc(N(C)C)nc3c2CCN(C(C)=O)C3)CCO1 (stereo not drawn) [CBK307464] | 82.2% |
| Cc1ccccc1N1CCC(CNC(=O)CCn2nc(C)c(C)c2C)C1 (stereo not drawn) [CBK307465] | 87.7% |
| CSc1nnc(CC2CCN(C(=O)c3cc(C)c(C)cc3C)CC2)n1C [CBK307467] | 99% |
| CC(=O)N1CCOC(CNc2nc(C(C)(C)C)nc3c2cnn3C)C1 (stereo not drawn) [CBK307469] | 89.4% |
| CC(=O)c1cc(CN(C)C(C)c2ccncn2)cs1 (stereo not drawn) [CBK307470] | 85.5% |
| Cn1c(N2CC[C@H](O)C2)nc2cc(C(=O)NCc3ccsc3)ccc21 [CBK307471] | 87.5% |
| Cc1cnc2c(Cl)c(C(=O)N3CCC4(CCCNC4)C3)nn2c1 (stereo not drawn) [CBK307472] | 116% |
| O=C(NCc1csc2c1CCCC2)N1CCC(CO)CC1 [CBK307476] | 98.9% |
| Cn1ccnc1CNC(=O)N1CCCC(C(=O)c2cccc(Cl)c2)C1 (stereo not drawn) [CBK307479] | 105% |
| O=c1cc(N2CCCCC2)cnn1Cc1nccn1C1CC1 [CBK307484] | 89.6% |
| Cn1cnnc1SCCNC(=O)N1CCCN(Cc2cccs2)CC1 [CBK307485] | 94% |
| O=C(c1ccc2c(c1)CCCO2)N(Cc1ccccn1)CC1CCCO1 (stereo not drawn) [CBK307488] | 84.9% |

| SMILES | viability at 28.5 h, 10 µM |
| --- | --- |
| CN(C)Cc1nc(C(=O)N2CCn3nc(C(O)C4CC4)cc3C2)cs1 (stereo not drawn) [CBK307489] | 101% |
| Cn1nnc2cc(NC(=O)NCc3csc(N4CCOCC4)n3)ccc21 [CBK307492] | 94.2% |
| CCN(C)C(=O)c1cn2cc(-c3cc(C)oc3C)n(C)c(=O)c2n1 [CBK307494] | 94.9% |
| COCc1nc(NCCn2c(C)cc(C)nc2=O)cc(C2CCOC2)n1 (stereo not drawn) [CBK307495] | 92.6% |
| Cc1nc(C)n(CCCNc2cc(C(C)C)nc3ccnn23)n1 [CBK307497] | 79.7% |
| O=C(NCc1csc2c1CCCC2)N1CC(c2ccccn2)C1 [CBK307499] | 100% |
| CCOc1ccc(Cl)cc1CN(C)C(=O)NCC(C)CN(C)C (stereo not drawn) [CBK307500] | 121% |
| CN(C)c1nc2c(c(-c3cncc(N)c3)n1)CCCC2 [CBK307503] | 105% |
| COc1ccccc1CC(=O)N(Cc1cccnc1)C[C@@H]1CCC(=O)N1 [CBK307504] | 95.7% |
| COc1c(C)cc(-c2nc(C)nc(C)c2C)cc1C [CBK307506] | 96.7% |
| CNC(=O)CCc1ccccc1NC(=O)NCc1cnc(SC)n1C [CBK307507] | 101% |
| Cc1nc2cc(OCc3nc(C(=O)NCC4CCOC4)co3)ccc2s1 (stereo not drawn) [CBK307508] | 86.1% |
| COCCNc1nc2c(c(N3CCSCC3)n1)CCNCC2 [CBK307510] | 111% |
| Cn1ncc2c(NCCN3CCOC3=O)nc(C(C)(C)C)nc21 [CBK307511] | 75.3% |
| CC(=O)c1ccc(-c2cc(F)cc3c2OC(CN)C3)s1 (stereo not drawn) [CBK307513] | 54.2% |
| CC(NC(=O)C1(Cn2ccnc2)CC1)c1nc(-c2ccccn2)no1 (stereo not drawn) [CBK307514] | 107% |
| CCN(CCO)C(=O)c1cccc(-c2cnn(C(F)F)c2C)c1 [CBK307519] | 95.5% |
| CC(C)OCC(=O)NC1CCCc2nc(N3CCC(CO)CC3)ncc21 (stereo not drawn) [CBK307520] | 94.5% |
| Cc1ccc(CN2CCC(CN(C)C(=O)c3cc4sccc4[nH]3)CC2)o1 [CBK307522] | 102% |
| CSCCN(C)c1nc2c(c(=O)[nH]1)Cc1ccccc1OC2 [CBK307523] | 100% |
| COc1ccc(CN2CC=CC2C(=O)O)cc1Cn1cncn1 (stereo not drawn) [CBK307524] | 76.2% |
| CCCCSc1nc(N)cc(N2CCC(N3CCCC3=O)CC2)n1 [CBK307525] | 108% |
